Reference: DBAASP
In brackets after ≈: the same amount, converted by molar mass.

Key:
Assay in all cases: ≥ marks a high value that may be exact or a test limit, other limits are often not marked, values filed in µg/mL are converted to µM
[1] = tested on: Bacillus cereus
[2] = tested on: Escherichia coli
[3] = tested on: Escherichia coli ATCC 25922
[4] = tested on: Enterococcus faecalis ATCC 29212
[5] = tested on: Staphylococcus epidermidis ATCC 12228
[6] = tested on: Klebsiella pneumoniae ATCC 700603
[7] = tested on: Staphylococcus aureus ATCC 25923
[8] = tested on: Bacillus subtilis ATCC 23857
[9] = tested on: Pseudomonas aeruginosa ATCC 27853
[10] = tested on: Acinetobacter baumannii ATCC 19606
[11] = tested on: Bacillus subtilis 168

Compound | MIC [1] | MIC [2] | also measured
CC[C@H](C)[C@H](NC(=O)[C@H](CC(C)C)NC(=O)[C@H](CO)NC(=O)[C@H](C)NC(=O)[C@@H](NC(=O)[C@H](C)NC(=O)CNC(=O)[C@H](CCCCN)NC(=O)[C@H](Cc1ccccc1)NC(=O)[C@H](CCCCN)NC(=O)[C@@H](NC(=O)[C@H](C)NC(=O)[C@@H](NC(=O)[C@@H](NC(=O)[C@@H]1CCCN1C(=O)[C@H](CO)NC(=O)[C@H](CO)NC(=O)[C@@H](NC(=O)CN)C(C)C)[C@@H](C)CC)C(C)C)C(C)C)C(C)C)C(=O)N[C@@H](CCCCN)C(=O)O [GVSSPIVAVKFKGAVASLIK] | ≥ 130 µM | > 130 µM | 
CC[C@H](C)[C@H](NC(=O)[C@H](CCCN=C(N)N)NC(=O)[C@H](CCCCN)NC(=O)[C@H](Cc1c[nH]c2ccccc12)NC(=O)[C@H](Cc1c[nH]c2ccccc12)NC(=O)CN)C(=O)N[C@@H](CCCCN)C(=O)N[C@H](C(=O)N[C@@H](Cc1c[nH]c2ccccc12)C(=O)N[C@@H](Cc1c[nH]c2ccccc12)C(N)=O)[C@@H](C)O [GWWKRIKTWW] |  |  | MIC [3]: 8 µM (≈ 11.6 µg/mL); MIC [4]: 16 µM (≈ 23.1 µg/mL); MIC [5]: 8 µM (≈ 11.6 µg/mL); MIC [6]: 8 µM (≈ 11.6 µg/mL); MIC [7]: 4 µM (≈ 5.78 µg/mL); MIC [8]: 8 µM (≈ 11.6 µg/mL); MIC [9]: 4 µM (≈ 5.78 µg/mL); MIC [10]: 8 µM (≈ 11.6 µg/mL)
CC[C@H](C)[C@H](NC(=O)CNC(=O)[C@@H](NC(=O)[C@H](CCCCN)NC(=O)[C@H](C)NC(=O)[C@@H](NC(=O)[C@H](C)NC(=O)[C@H](CO)NC(=O)[C@H](CO)NC(=O)[C@H](Cc1ccccc1)NC(=O)[C@H](CC(C)C)NC(=O)[C@@H](NC(=O)[C@@H]1CCCN1C(=O)[C@@H](N)CC(C)C)C(C)C)[C@@H](C)CC)C(C)C)C(=O)N[C@@H](CCCCN)C(=O)N[C@@H](CC(C)C)C(=O)NCC(=O)N[C@@H](C)C(=O)N[C@@H](CCCCN)C(=O)N[C@H](C(=O)O)C(C)C [LPVLFSSAIAKVGIKLGAKV] | ≥ 127 µM | > 127 µM | 
CC[C@H](C)[C@H](NC(=O)[C@H](CS)NC(=O)[C@H](CCSC)NC(=O)[C@H](CS)NC(=O)[C@H](CCCN=C(N)N)NC(=O)[C@@H](N)CC(C)C)C(=O)N[C@@H](CCCCN)C(=O)N[C@@H](Cc1c[nH]c2ccccc12)C(=O)N[C@@H](Cc1c[nH]c2ccccc12)C(=O)N[C@@H](CO)C(=O)NCC(=O)N[C@@H](CCCCN)C(=O)N[C@@H](Cc1cnc[nH]1)C(=O)N1CCC[C@H]1C(=O)N[C@@H](CCCCN)C(=O)O [LRCMCIKWWSGKHPK] |  |  | MIC [11]: 7 µM (≈ 13.1 µg/mL)
CC[C@H](C)[C@H](NC(=O)[C@H](CCCCN)NC(=O)CNC(=O)[C@@H](NC(=O)[C@H](C)NC(=O)[C@H](CO)NC(=O)[C@@H](N)CC(C)C)C(C)C)C(=O)N[C@@H](C)C(=O)N[C@@H](CO)C(=O)N[C@@H](CCCCN)C(=O)N[C@H](C(=O)N[C@H](C(=O)N1CCC[C@H]1C(=O)N[C@@H](CO)C(=O)N[C@H](C(=O)N[C@H](C(=O)NCC(=O)N[C@@H](C)C(=O)N[C@@H](Cc1ccccc1)C(=O)N[C@@H](CCCCN)C(=O)O)[C@@H](C)CC)C(C)C)C(C)C)C(C)C [LSAVGKIASKVVPSVIGAFK] | ≥ 130 µM | > 130 µM | 
CC[C@H](C)[C@H](NC(=O)[C@H](CCSC)NC(=O)[C@H](CO)NC(=O)[C@H](Cc1ccccc1)NC(=O)[C@@H](NC(=O)[C@H](CO)NC(=O)[C@@H]1CCCN1C(=O)[C@@H](NC(=O)[C@@H](NC(=O)[C@H](CCCCN)NC(=O)[C@H](CO)NC(=O)[C@H](C)NC(=O)[C@H](CC(C)C)NC(=O)[C@H](CCCCN)NC(=O)CNC(=O)[C@@H](NC(=O)[C@@H](NC(=O)[C@@H]1CCCN1)C(C)C)[C@@H](C)CC)C(C)C)C(C)C)C(C)C)C(=O)N[C@@H](CCCCN)C(=O)N[C@@H](CCCN=C(N)N)C(=O)O [PVIGKLASKVVPSVFSMIKR] | ≥ 119 µM | > 119 µM | 
CC[C@H](C)[C@H](NC(=O)[C@H](CO)NC(=O)[C@H](CS)NC(=O)[C@H](Cc1ccc(O)cc1)NC(=O)[C@@H](NC(=O)[C@H](C)NC(=O)[C@@H]1CCCN1C(=O)[C@H](Cc1ccccc1)NC(=O)[C@@H](NC(=O)[C@H](CCCCN)NC(=O)[C@H](CO)NC(=O)[C@H](C)NC(=O)[C@@H](NC(=O)[C@H](CCCN=C(N)N)NC(=O)CNC(=O)[C@H](CC(C)C)NC(=O)[C@H](C)NC(=O)[C@@H](N)CO)C(C)C)C(C)C)C(C)C)C(=O)N[C@H](C(=O)N[C@@H](CCCCN)C(=O)O)[C@@H](C)O [SALGRVASKVFPAVYCSITK] | ≥ 122 µM | > 122 µM | 
CC(C)[C@H](NC(=O)[C@H](Cc1ccccc1)NC(=O)[C@@H](NC(=O)[C@@H](NC(=O)[C@@H](NC(=O)[C@H](CCCCN)NC(=O)[C@H](C)NC(=O)[C@@H](N)[C@@H](C)O)C(C)C)C(C)C)C(C)C)C(=O)N[C@@H](CO)C(=O)N[C@@H](Cc1ccccc1)C(=O)N[C@@H](CO)C(=O)N[C@@H](Cc1ccc(O)cc1)C(=O)N[C@H](C(=O)N[C@H](C(=O)N1CCC[C@H]1C(=O)N[C@@H](CCCCN)C(=O)N[C@@H](CCCCN)C(=O)N[C@@H](CCCN=C(N)N)C(=O)N[C@@H](C)C(=O)N[C@@H](CS)C(=O)O)C(C)C)C(C)C [TAKVVVFVSFSYVVPKKRAC] | ≥ 115 µM | > 115 µM | 
